Test results published in ChEMBL document CHEMBL3751755, “Developing steroidal aromatase inhibitors-an effective armament to win the battle against breast cancer” (Eur J Med Chem, 2015).

Assays:
Aromatase [1] = molecular target: T1, Aromatase (Homo sapiens, UniProt P11511); assay: Competitive inhibition of human aromatase extracted from placental microsomes after 10 mins by Lineweaver- Burk plots analysis in presence of [1beta-3H]androstenedione
T1 sequence (P11511 whole entry): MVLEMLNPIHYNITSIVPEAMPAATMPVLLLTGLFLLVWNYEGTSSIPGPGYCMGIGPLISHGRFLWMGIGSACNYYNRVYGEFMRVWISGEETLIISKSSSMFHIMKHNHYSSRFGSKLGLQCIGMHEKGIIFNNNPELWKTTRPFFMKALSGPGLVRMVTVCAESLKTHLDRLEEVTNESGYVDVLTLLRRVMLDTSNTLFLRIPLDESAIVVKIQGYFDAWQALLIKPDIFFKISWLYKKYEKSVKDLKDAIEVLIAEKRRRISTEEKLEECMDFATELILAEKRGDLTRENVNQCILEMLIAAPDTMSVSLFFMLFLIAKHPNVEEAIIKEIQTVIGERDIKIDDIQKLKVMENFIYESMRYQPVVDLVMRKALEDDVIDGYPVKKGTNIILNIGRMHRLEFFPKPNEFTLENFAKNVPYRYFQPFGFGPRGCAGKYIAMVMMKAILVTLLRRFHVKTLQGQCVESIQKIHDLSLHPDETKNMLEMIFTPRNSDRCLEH

Aromatase [2] = molecular target: T1, Aromatase; assay: Competitive inhibition of human aromatase extracted from placental microsomes by Lineweaver- Burk plots analysis in presence of 4-androstene-3,17-dione
Aromatase [3] = molecular target: T1, Aromatase; assay: Time dependent inactivation of human aromatase extracted from placental microsomes using [1-3H]androstenedione as substrate
Aromatase [4] = molecular target: T2, Aromatase (Rattus norvegicus, UniProt P22443); assay: Inhibition of aromatase in denucleated ovarian fraction extracted from PMSG pretreated Wistar rat by using testosterone as substrate at 1 uM
T2 sequence (P22443 whole entry): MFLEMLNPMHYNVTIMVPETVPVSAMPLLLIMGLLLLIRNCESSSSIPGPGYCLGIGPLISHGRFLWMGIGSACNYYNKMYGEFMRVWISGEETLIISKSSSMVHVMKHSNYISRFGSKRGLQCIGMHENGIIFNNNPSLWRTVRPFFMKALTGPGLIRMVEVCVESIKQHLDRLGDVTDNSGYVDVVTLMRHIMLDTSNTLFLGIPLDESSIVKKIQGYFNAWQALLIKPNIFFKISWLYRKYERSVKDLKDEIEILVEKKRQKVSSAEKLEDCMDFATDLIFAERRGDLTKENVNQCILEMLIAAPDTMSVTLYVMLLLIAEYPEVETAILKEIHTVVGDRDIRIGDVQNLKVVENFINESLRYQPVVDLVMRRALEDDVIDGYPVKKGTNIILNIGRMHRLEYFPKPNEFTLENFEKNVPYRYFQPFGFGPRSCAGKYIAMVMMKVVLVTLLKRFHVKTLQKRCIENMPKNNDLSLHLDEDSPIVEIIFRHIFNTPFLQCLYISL

Aromatase [5] = molecular target: T1, Aromatase; assay: Inhibition of human aromatase extracted from placental microsomes using [1beta-3H]androstenedione as substrate at 10 to 500 nM after 30 mins; details: 0.5 h
Aromatase [6] = molecular target: T1, Aromatase; assay: Inhibition of human aromatase extracted from placental microsomes using [1beta-3H]androstenedione as substrate after 30 mins
Aromatase [7] = molecular target: T1, Aromatase; assay: Inhibition of human aromatase extracted from placental microsomes using [1,2-3H]androstenedione as substrate after 30 mins by scintillation counting analysis
Aromatase [8] = molecular target: T1, Aromatase
Aromatase [9] = molecular target: T1, Aromatase; assay: Inhibition of human aromatase extracted from placental microsomes using 4-[14C]androstenedione/androstenedione as substrate assessed as estrogen formation after 30 mins in NADPH-generating system; details: 0.5 h
Aromatase [10] = molecular target: T2, Aromatase; assay: Inhibition of rat aromatase extracted from PMSG-primed ovarian fraction using 4-[14C]androstenedione/androstenedione as substrate assessed as estrogen formation after 30 mins in NADPH-generating system; details: 0.5 h
Aromatase [11] = molecular target: T1, Aromatase; assay: Inhibition of human aromatase after 30 mins by fluorescence assay
Aromatase [12] = molecular target: T1, Aromatase; remark: listed apart in the source
[13] = Antitumor activity against NMU-induced mammary tumor in rat; type: functional
Aromatase [14] = molecular target: T1, Aromatase; assay: Inhibition of human aromatase extracted from placental microsomes at 520 nM after 10 mins
Aromatase [15] = molecular target: T1, Aromatase; assay: Inhibition of human aromatase extracted from placental microsomes using [1beta-3H]androstenedione as substrate after 20 mins
Aromatase [16] = molecular target: T1, Aromatase; remark: listed apart in the source
Aromatase [17] = molecular target: T1, Aromatase; assay: Competitive inhibition of human aromatase extracted from placental microsomes by double reciprocal plot analysis in presence of 4-androstene-3,17-dione; details: read-out: Ki(app)
Aromatase [18] = molecular target: T1, Aromatase; assay: Inhibition of human aromatase extracted from placental microsomes using [1beta,2beta-3H]androstenedione as substrate after 10 mins
Aromatase [19] = molecular target: T1, Aromatase; assay: Competitive inhibition of human aromatase extracted from placental microsomes by Dixon plot analysis in presence of [1beta-3H]AD; details: read-out: Ki
Aromatase [20] = molecular target: T1, Aromatase; assay: Inhibition of human aromatase extracted from placental microsomes using [1beta-3H]AD as substrate by radiometric assay

## C[C@]12CCC(=O)C(Sc3ccccc3)=C1C=C[C@@H]1[C@@H]2CC[C@]2(C)C(=O)CC[C@@H]12
Aromatase [1]
  Ki: 9.8 nM

## C[C@]12CCC(=O)C=C1C[C@@H](Sc1cccc3ccccc13)[C@@H]1[C@@H]2CC[C@]2(C)C(=O)CC[C@@H]12
Aromatase [2]
  Ki: 24.1 nM

## C[C@]12CC[C@H]3[C@@H](CCC4=CC(=O)[C@H]5C[C@@H](O)[C@]43C5)[C@@H]1CCC2=O
Aromatase [3]
  Ki: 870 nM

## C[C@]12CC[C@H]3[C@@H](CCC4=C(O)C(=O)CC[C@@]43C)[C@@H]1CC(=O)OC2
Aromatase [4]
  inhibition at 1 µM: 34.8%

## CN(C)c1cccc2c(S(=O)(=O)Nc3ccc(S[C@@H]4CC5=CC(=O)CC[C@]5(C)[C@H]5CC[C@]6(C)C(=O)CC[C@H]6[C@H]45)cc3)cccc12
Aromatase [2]
  Ki: 24.1 nM

## C[C@]12CCC(=O)C=C1C[C@@H](Sc1ccc(Nc3ccc([N+](=O)[O-])cc3[N+](=O)[O-])cc1)[C@@H]1[C@@H]2CC[C@]2(C)C(=O)CC[C@@H]12
Aromatase [2]
  Ki: 24.1 nM

## C[C@]12CCC(=O)c3onc(c31)C[C@@H]1[C@@H]2CC[C@]2(C)C(=O)CC[C@@H]12
Aromatase [5]
  inhibition (INH): 50%
Aromatase [6]
  IC50: 1.89 µM

## C[C@]12C=CC(=O)C(Sc3ccccc3)=C1CC[C@@H]1[C@@H]2CC[C@]2(C)C(=O)CC[C@@H]12
Aromatase [1]
  Ki: 9.8 nM

## C[C@]12CCC(=O)C(Sc3ccccc3)=C1CC[C@@H]1[C@@H]2CC[C@]2(C)C(=O)CC[C@@H]12
Aromatase [7]
  IC50: 190 nM

## C[C@@H]1OC(=O)C[C@H]2[C@@H]3CCC4=C(O)C(=O)CC[C@]4(C)[C@H]3CC[C@]12C
Aromatase [4]
  inhibition at 1 µM: 23.3%

## C[C@]12CCC(=O)C(Oc3ccccc3)=C1C[C@@H](Sc1ccccc1)[C@@H]1[C@@H]2CC[C@]2(C)C(=O)CC[C@@H]12
Aromatase [7]
  IC50: 1650 nM

## C[C@@]12CCC[C@H]1[C@@H]1CCC3=CC(=O)C=C[C@]3(C)[C@H]1CC2
Aromatase [8]
  Ki: 260 nM

## C[C@]12C=CC(=O)C(O)=C1CC[C@@H]1[C@@H]2CC[C@]2(C)C(=O)CC[C@@H]12
Aromatase [9]
  inhibition (INH): 30%
Aromatase [10]
  inhibition (INH): 30%

## C[C@]12C=CC(=O)C=C1CC[C@@H]1[C@@H]2CC[C@]2(C)C3=NN(c4ccccc4)[C@H](c4ccccc4)[C@H]3C[C@@H]12
Aromatase [11]
  IC50: 1820 nM

## C[C@]12CC[C@H]3[C@@H](Cc4noc5c4[C@]3(C)CCC5=O)[C@@H]1CC[C@@H]2O
Aromatase [5]
  inhibition (INH): 50%
Aromatase [6]
  IC50: 18.6 µM

## C[C@]12C=CC(=O)C(Sc3ccccc3)=C1C=C[C@@H]1[C@@H]2CC[C@]2(C)C(=O)CC[C@@H]12
Aromatase [1]
  Ki: 9.8 nM

## C[C@]12CCC(=O)C(Oc3ccccc3)=C1CC[C@@H]1[C@@H]2CC[C@]2(C)C(=O)CC[C@@H]12
Aromatase [7]
  IC50: 530 nM

## C[C@]12CCC(=O)C(F)=C1CC[C@@H]1[C@@H]2CC[C@]2(C)C(=O)CC[C@@H]12
Aromatase [12]
  Ki: 15 nM
[13]
  Activity: 44%

## C[C@]12CCC(=O)C=C1CC[C@@H]1[C@@H]2CC[C@]2(C)C(=O)[C@H](Br)C[C@@H]12
Aromatase [14]
  inhibition at […]: 95%

## C[C@]12CCC(=O)C(c3ccc(OS(N)(=O)=O)cc3)=C1CC[C@@H]1[C@@H]2CC[C@]2(C)C(=O)CC[C@@H]12
Aromatase [15]
  IC50: 990 nM
Aromatase [16]
  Ki: 97 nM

## C[C@]12CC[C@H]3[C@@H](CCC4=CC(=O)C=C[C@@]43C)[C@@H]1CC[C@@H]2O
Aromatase [8]
  Ki: 260 nM

## C[C@]12C=CC(=O)C=C1C[C@@H](Sc1cccc3ccccc13)[C@@H]1[C@@H]2CC[C@]2(C)C(=O)CC[C@@H]12
Aromatase [17]
  Ki: 12 nM

## C[C@]12CC[C@H]3[C@@H](CCC4=C(F)C(=O)CC[C@@H]43)[C@@H]1CCC2=O
Aromatase [12]
  Ki: 90 nM

## C[C@]12C=CC(=O)C=C1C[C@@H](Sc1ccc(Br)cc1)[C@@H]1[C@@H]2CC[C@]2(C)C(=O)CC[C@@H]12
Aromatase [17]
  Ki: 12 nM

## C[C@]12C=CC(=O)C(O)=C1C=C[C@@H]1[C@@H]2CC[C@]2(C)C(=O)CC[C@@H]12
Aromatase [9]
  inhibition (INH): 30%
Aromatase [10]
  inhibition (INH): 30%

## C[C@]12CCC(=O)C(SCF)=C1CC[C@@H]1[C@@H]2CC[C@]2(C)C(=O)CC[C@@H]12
Aromatase [18]
  IC50: 800 nM

## C[C@]12CCC(=O)C=C1[C@@H](Br)C[C@@H]1[C@@H]2CC[C@]2(C)C(=O)CC[C@@H]12
Aromatase [14]
  inhibition at […]: 45%

## COc1ccc([C@@H]2[C@H]3C[C@H]4[C@@H]5CCC6=CC(=O)C=C[C@]6(C)[C@H]5CC[C@]4(C)C3=NN2C)cc1
Aromatase [11]
  IC50: 1820 nM

## C[C@@H]1C[C@@]2(C)C(=CC1=O)CC[C@@H]1[C@@H]2CC[C@]2(C)C(=O)CC[C@@H]12
Aromatase [19]
  Ki: 55 nM
Aromatase [20]
  IC50: 690 nM

## C[C@]12CC[C@H]3O[C@H]3[C@@H]1CC[C@@H]1[C@@H]2CC[C@]2(C)C(=O)CC[C@@H]12
Aromatase [15]
  IC50: 180 nM

## C[C@]12C=CC(=O)C=C1CC[C@@H]1[C@@H]2CC[C@]2(C)C(=O)OC[C@@H]12
Aromatase [8]
  Ki: 260 nM

## C[C@]12C=CC(=O)C=C1C[C@@H](Sc1ccc3ccccc3c1)[C@@H]1[C@@H]2CC[C@]2(C)C(=O)CC[C@@H]12
Aromatase [17]
  Ki: 12 nM

## C=C1C[C@@]2(C)C(=CC1=O)CC[C@@H]1[C@@H]2CC[C@]2(C)C(=O)CC[C@@H]12
Aromatase [19]
  Ki: 68 nM
Aromatase [20]
  IC50: 550 nM

## C[C@]12CC[C@H]3[C@@H](Cc4noc5c4[C@]3(C)CC[C@@H]5O)[C@@H]1CC[C@@H]2O
Aromatase [5]
  inhibition (INH): 50%
Aromatase [6]
  IC50: 120 µM

## C[C@]12CC[C@H]3[C@@H](CCC4=CC(=O)[C@H]5C[C@H](O)[C@]43C5)[C@@H]1CCC2=O
Aromatase [3]
  Ki: 926 nM

## C[C@]12CCC(=O)C(SCCl)=C1CC[C@@H]1[C@@H]2CC[C@]2(C)C(=O)CC[C@@H]12
Aromatase [18]
  IC50: 940 nM

## C[C@]12CCC(=O)C(O)=C1C=C[C@@H]1[C@@H]2CC[C@]2(C)C(=O)CC[C@@H]12
Aromatase [9]
  inhibition (INH): 30%
Aromatase [10]
  inhibition (INH): 30%

## C[C@]12CC[C@H]3[C@@H](CCC4=CC(=O)[C@H]5COC[C@]43C5)[C@@H]1CCC2=O
Aromatase [3]
  Ki: 17.6 nM

## C[C@]12CCC(=O)C=C1C[C@@H](Sc1ccc3ccccc3c1)[C@@H]1[C@@H]2CC[C@]2(C)C(=O)CC[C@@H]12
Aromatase [2]
  Ki: 24.1 nM

## CN1N=C2[C@H](C[C@H]3[C@@H]4CCC5=CC(=O)C=C[C@]5(C)[C@H]4CC[C@]23C)[C@H]1c1ccccc1
Aromatase [11]
  IC50: 1820 nM

## C[C@]12CC[C@H]3[C@@H](CCC4=CC(=O)CC[C@@]43[C@@H]3CS3)[C@@H]1CCC2=O
Aromatase [8]
  Ki: 2 nM

## COc1ccc([C@@H]2[C@H]3C[C@H]4[C@@H]5CCC6=CC(=O)C=C[C@]6(C)[C@H]5CC[C@]4(C)C3=NN2c2ccccc2)cc1
Aromatase [11]
  IC50: 1820 nM
